Measured values published in patent publication US7135462B2, “Hepatitis C virus inhibitors” (priority 2003, dated 2006).
pEC50, pIC50: −log10 of the molar value. Where two headings read alike, the source gives them in different places.

Assays:
[1] = target: T1, HCV NS3/4A protease complex (BMS strain) (UniProt P27958, C1454S/C1711G, species not given); experiment: Recombinant HCV NS3/4A protease complex FRET peptide assay; type: biochemical, Hepatitis C virus (HCV), genotype 1a; conditions: NS3/4A BMS strain, activity range class
T1 construct: for H77 and J4L6S; fused on or other part: Three-lysine solubilising tail at the C-terminus of NS4A
Description: Recombinant HCV NS3/4A Protease Complex FRET Peptide Assay
Serum from an HCV-infected patient was obtained from Dr. T. Wright, San Francisco Hospital. An engineered full-length cDNA (compliment deoxyribonucleic acid) template of the HCV genome (BMS strain) was constructed from DNA fragments obtained by reverse transcription-PCR (RT-PCR) of serum RNA (ribonucleic acid) and using primers selected on the basis of homology between other genotype 1a strains.
The H77 and J4L6S strains were used for production of recombinant NS3/4A protease complexes. […] Briefly, a three-lysine solubilizing tail was added at the 3′-end of the NS4A coding region. […] Briefly, the NS3/4A protease complex expression was induced with 0.5 millimolar (mM) Isopropyl β-D-1-thiogalactopyranoside (IPTG) for 22 hours (h) at 20° C. […] The cells were resuspended in lysis buffer (10 mL/g) consisting of 25 mM N-(2-Hydroxyethyl)piperazine-N′-(2-Ethane Sulfonic acid) (HEPES), pH 7.5, 20% glycerol, 500 mM Sodium Chloride (NaCl), 0.5% Triton X-100, 1 microgram/milliliter (“μg/mL”) lysozyme, 5 mM Magnesium Chloride (MgCl2), 1 μg/ml DnaseI, 5 mM β-Mercaptoethanol (βME), Protease inhibitor—Ethylenediamine Tetraacetic acid (EDTA) free (Roche), homogenized and incubated for 20 minutes (min) at 4° C. The homogenate was sonicated and clarified by ultra-centrifugation at 235000 g for 1 h at 4° C. Imidazole was added to the supernatant to a final concentration of 15 mM and the pH adjusted to 8.0. The crude protein extract was loaded on a Nickel—Nitrilotriacetic acid (Ni-NTA) column pre-equilibrated with buffer B (25 mM HEPES, pH 8.0, 20% glycerol, 500 mM NaCl, 0.5% Triton X-100, 15 mM imidazole, 5 mM βME). The sample was loaded at a flow rate of 1 mL/min. The column was washed with 15 column volumes of buffer C (same as buffer B except with 0.2% Triton X-100). The protein was eluted with 5 column volumes of buffer D (same as buffer C except with 200 mM Imidazole).
NS3/4A protease complex-containing fractions were pooled and loaded on a desalting column Superdex-S200 pre-equilibrated with buffer D (25 mM HEPES, pH 7.5, 20% glycerol, 300 mM NaCl, 0.2% Triton X-100, 10 mM βME). Sample was loaded at a flow rate of 1 mL/min. NS3/4A protease complex-containing fractions were pooled and concentrated to approximately 0.5 mg/ml.
The enzyme was stored at −80° C., thawed on ice and diluted prior to use in assay buffer. […] The sequence of this peptide is loosely based on the NS4A/NS4B natural cleavage site for the HCV NS3 protease except there is an ester linkage rather than an amide bond at the cleavage site. The peptide substrate was incubated with one of the three recombinant NS3/4A protease complexes, in the absence or presence of a compound of the present invention, and the formation of fluorescent reaction product was followed in real time using a Cytofluor Series 4000.
The reagents were as follow: HEPES and Glycerol (Ultrapure) were obtained from GIBCO-BRL. Dimethyl Sulfoxide (DMSO) was obtained from Sigma. β-Mercaptoethanol was obtained from Bio Rad.
Assay buffer: 50 mM HEPES, pH 7.5; 0.15 M NaCl; 0.1% Triton; 15% Glycerol; 10 mM βME. Substrate: 2 μM final concentration (from a 2 mM stock solution in DMSO stored at −20° C.). HCV NS3/4A protease type 1a (1b), 2–3 nM final concentration (from a 5 μM stock solution in 25 mM HEPES, pH 7.5, 20% glycerol, 300 mM NaCl, 0.2% Triton-X100, 10 mM βME).
The assay was performed in a 96-well polystyrene black plate from Falcon.

[2] = test system: HCV replicon in Huh7 cells; experiment: microbe, parasite or virus in culture; type: cell-based, strain 1b; conditions: Hepatitis C virus, Huh-7, 96 h; Huh7 cells expressing HCV replicon, 4 days; activity range class
Description: Generation of HCV Replicon
This system enabled us to evaluate the effects of our HCV Protease compounds on HCV RNA replication. Briefly, using the HCV strain 1b sequence described in the Lohmann paper (Assession number: AJ238799), an HCV cDNA was generated encoding the 5′ internal ribosome entry site (IRES), the neomycin resistance gene, the EMCV (encephalomyocarditis viurs)-IRES and the HCV nonstructural proteins, NS3-NS5B, and 3′ non-translated region (NTR). In vitro transcripts of the cDNA were transfected into the human hepatoma cell line, Huh7. […] Resulting cell lines were characterized for positive and negative strand RNA production and protein production over time.
Huh7 cells, constitutively expressing the HCV replicon, were grown in Dulbecco's Modified Eagle Media (DMEM) containing 10% Fetal calf serum (FCS) and 1 mg/ml G418 (Gibco-BRL). Cells were seeded the night before (1.5×10^4 cells/well) in 96-well tissue-culture sterile plates. Compound and no compound controls were prepared in DMEM containing 4% FCS, 1:100 Penicillin/Streptomysin, 1:100 L-glutamine and 5% DMSO in the dilution plate (0.5% DMSO final concentration in the assay). Compound/DMSO mixes were added to the cells and incubated for 4 days at 37° C. After 4 days, plates were rinsed thoroughly with Phosphate-Buffered Saline (PBS) (3 times 150 μl). The cells were lysed with 25 μl of a lysis assay reagent containing the FRET peptide (RET S1, as described for the in vitro enzyme assay). The lysis assay reagent was made from 5× cell Luciferase cell culture lysis reagent (Promega #E153A) diluted to 1× with distilled water, NaCl added to 150 mM final, the FRET peptide diluted to 10 μM final from a 2 mM stock in 100% DMSO. The plate was then placed into the Cytofluor 4000 instrument which had been set to 340 nm excitation/490 nm emission, automatic mode for 21 cycles and the plate read in a kinetic mode. EC50 determinations were carried out as described for the IC50 determinations. […]
The percentage inhibition was calculated using the formula below: […]
The values were graphed and analyzed using XLFit to obtain the EC50 value.

Work on `C=C[C@@H]1C[C@]1(NC(=O)[C@@H]1C[C@@H](Oc2nccc3ccccc23)CN1C(=O)[C@@H](NC(=O)Oc1ccc(C)cc1)C(C)(C)C)C(=O)NS(=O)(=O)C1(Cc2ccccc2)CC1` [Cmpd 200] yielded a pIC50 ([1]; read-out: IC50) of 5.00 to 6.00.

In the case of `C=C[C@@H]1C[C@]1(NC(=O)[C@@H]1C[C@@H](Oc2nccc3ccccc23)CN1C(=O)[C@@H](NC(=O)Oc1ccccc1)C(C)(C)C)C(=O)NS(=O)(=O)C1(Cc2ccccc2)CC1` [Cmpd 201], the pIC50 ([1]; read-out: IC50) was 5.00 to 6.00.

For `C=C[C@@H]1C[C@]1(NC(=O)[C@@H]1C[C@@H](Oc2nccc3ccccc23)CN1C(=O)[C@@H](NC(=O)Oc1ccc(F)cc1)C(C)(C)C)C(=O)NS(=O)(=O)C1(Cc2ccccc2)CC1` [Cmpd 202], the pIC50 ([1]; read-out: IC50) was 5.00 to 6.00.

`C=C[C@@H]1C[C@]1(NC(=O)[C@@H]1C[C@@H](Oc2nccc3ccccc23)CN1C(=O)[C@@H](NC(=O)Oc1ccc(OC)cc1)C(C)(C)C)C(=O)NS(=O)(=O)C1(Cc2ccccc2)CC1` [Cmpd 203] gave a pIC50 ([1]; read-out: IC50) of 5.00 to 6.00.

In the case of `C=C[C@@H]1C[C@]1(NC(=O)[C@@H]1C[C@@H](Oc2nccc3ccccc23)CN1C(=O)[C@@H](NC(=O)OCCOC)C(C)(C)C)C(=O)NS(=O)(=O)C1(Cc2ccccc2)CC1` [Cmpd 204], the pIC50 ([1]; read-out: IC50) was 5.00 to 6.00.

`C=C[C@@H]1C[C@]1(NC(=O)[C@@H]1C[C@@H](Oc2nccc3ccccc23)CN1C(=O)[C@@H](NC(=O)OCC(C)(C)C)C(C)(C)C)C(=O)NS(=O)(=O)C1(Cc2ccccc2)CC1` [Cmpd 205] gave a pEC50 [2] of 6.00 to 7.00 and a pIC50 ([1]; read-out: IC50) of 6.00 to 7.00.

For `C=C[C@@H]1C[C@]1(NC(=O)[C@@H]1C[C@@H](Oc2nccc3ccccc23)CN1C(=O)[C@@H](NC(=O)OCCF)C(C)(C)C)C(=O)NS(=O)(=O)C1(Cc2ccccc2)CC1` [Cmpd 206], the pIC50 ([1]; read-out: IC50) was 6.00 to 7.00.

`C=C[C@@H]1C[C@]1(NC(=O)[C@@H]1C[C@@H](Oc2nccc3ccccc23)CN1C(=O)[C@@H](NC(=O)Oc1ccccc1OC)C(C)(C)C)C(=O)NS(=O)(=O)C1(Cc2ccccc2)CC1` [Cmpd 207] showed a pIC50 ([1]; read-out: IC50) of 5.00 to 6.00.

`C=C[C@@H]1C[C@]1(NC(=O)[C@@H]1C[C@@H](Oc2nccc3ccccc23)CN1C(=O)[C@@H](NC(=O)Oc1cccc(C(F)(F)F)c1)C(C)(C)C)C(=O)NS(=O)(=O)C1(Cc2ccccc2)CC1` [Cmpd 208] gave a pIC50 ([1]; read-out: IC50) of 5.00 to 6.00.

`C=C[C@@H]1C[C@]1(NC(=O)[C@@H]1C[C@@H](Oc2nccc3ccccc23)CN1C(=O)[C@@H](NC(=O)O[C@@H]1C[C@H](C)CC[C@H]1C(C)C)C(C)(C)C)C(=O)NS(=O)(=O)C1(Cc2ccccc2)CC1` [Cmpd 209] was tested, and the pEC50 [2] was 5.00 to 6.00 and the pIC50 ([1]; read-out: IC50) was 4.00 to 5.00.

For `C=C[C@@H]1C[C@]1(NC(=O)[C@@H]1C[C@@H](Oc2nccc3ccccc23)CN1C(=O)[C@@H](NC(=O)CC(C)(C)C)C(C)(C)C)C(=O)NS(=O)(=O)C1(Cc2ccccc2)CC1` [Cmpd 210], the pIC50 ([1]; read-out: IC50) was 5.00 to 6.00.

Molecule `C=C[C@@H]1C[C@]1(NC(=O)[C@@H]1C[C@@H](Oc2nccc3ccccc23)CN1C(=O)[C@@H](NC(=O)COC)C(C)(C)C)C(=O)NS(=O)(=O)C1(Cc2ccccc2)CC1` [Cmpd 211] has a pIC50 ([1]; read-out: IC50) of 5.00 to 6.00.

`C=C[C@@H]1C[C@]1(NC(=O)[C@@H]1C[C@@H](Oc2nccc3ccccc23)CN1C(=O)[C@@H](NC(=O)CCOC)C(C)(C)C)C(=O)NS(=O)(=O)C1(Cc2ccccc2)CC1` [Cmpd 212] showed a pIC50 ([1]; read-out: IC50) of 5.00 to 6.00.

Molecule `C=C[C@@H]1C[C@]1(NC(=O)[C@@H]1C[C@@H](Oc2nccc3ccccc23)CN1C(=O)[C@@H](NC(=O)[C@@H]1COc2ccccc2O1)C(C)(C)C)C(=O)NS(=O)(=O)C1(Cc2ccccc2)CC1` [Cmpd 213] has a pIC50 ([1]; read-out: IC50) of 4.00 to 5.00.

With `C=C[C@@H]1C[C@]1(NC(=O)[C@@H]1C[C@@H](Oc2nccc3cc(OC)ccc23)CN1C(=O)[C@@H](NC(=O)NC(C)(C)C)C(C)(C)C)C(=O)NS(=O)(=O)C1(C)CC1` [Cmpd 217] the pEC50 [2] was > 7.00 and the pIC50 [1] was > 7.00.

In the case of `C=C[C@@H]1C[C@]1(NC(=O)[C@@H]1C[C@@H](Oc2nccc3cc(OC)ccc23)CN1C(=O)[C@@H](NC(=O)NC1CCCC1)C(C)(C)C)C(=O)NS(=O)(=O)C1(C)CC1` [Cmpd 218], the pEC50 [2] was > 7.00 and the pIC50 ([1]; read-out: IC50) was > 7.00.

For `C=C[C@@H]1C[C@]1(NC(=O)[C@@H]1C[C@@H](Oc2nccc3cc(OC)ccc23)CN1C(=O)[C@@H](NC(=O)NC(C)(C)CC)C(C)(C)C)C(=O)NS(=O)(=O)C1(C)CC1` [Cmpd 219], the pEC50 [2] was > 7.00 and the pIC50 ([1]; read-out: IC50) was > 7.00.

`C=C[C@@H]1C[C@]1(NC(=O)[C@@H]1C[C@@H](Oc2nccc3cc(OC)ccc23)CN1C(=O)[C@@H](NC(=O)N1CCC1)C(C)(C)C)C(=O)NS(=O)(=O)C1(C)CC1` [Cmpd 220] was tested, and the pEC50 [2] was 6.00 to 7.00 and the pIC50 ([1]; read-out: IC50) was > 7.00.

In the case of `C=C[C@@H]1C[C@]1(NC(=O)[C@@H]1C[C@@H](Oc2nccc3cc(OC)ccc23)CN1C(=O)[C@@H](NC(=O)OC(C)(C)C)C(C)(C)C)C(=O)NS(=O)(=O)C1(CC)CC1` [Cmpd 300, {1-[2-[1-(1-Ethyl-cyclopropanesulfonylaminocarbonyl)-2-vinyl-cyclopropylcarbamoyl]-4-(6-methoxy-isoquinolin-1-yloxy)-pyrrolidine-1-carbonyl]-2,2-dimethyl-propyl}-carbamic acid tert-butyl ester], the pEC50 [2] was > 7.00 and the pIC50 ([1]; read-out: IC50) was > 7.00.

For `C=C[C@@H]1C[C@]1(NC(=O)[C@@H]1C[C@@H](Oc2nccc3cc(OC)ccc23)CN1C(=O)[C@@H](NC(=O)OC(C)(C)C)C(C)(C)C)C(=O)NS(=O)(=O)C1(C)CC1` [Cmpd 301, (1-{4-(6-Methoxy-isoquinolin-1-yloxy)-2-[1-(1-methyl-cyclopropanesulfonylaminocarbonyl)-2-vinyl-cyclopropylcarbamoyl]-pyrrolidine-1-carbonyl}-2,2-dimethyl-propyl)-carbamic acid tert-butyl ester], the pEC50 [2] was > 7.00 and the pIC50 ([1]; read-out: IC50) was > 7.00.

For `C=C[C@@H]1C[C@]1(NC(=O)[C@@H]1C[C@@H](Oc2nc(-c3ccccc3)nc3ccccc23)CN1C(=O)[C@@H](N)C(C)(C)C)C(=O)NS(=O)(=O)C1(Cc2ccccc2)CC1` [Cmpd 603], the pIC50 ([1]; read-out: IC50) was 5.00 to 6.00.
